Results on 13 compounds are retold here after ChEMBL document CHEMBL3997786, “Development of Dihydroxyphenyl Sulfonylisoindoline Derivatives as Liver-Targeting Pyruvate Dehydrogenase Kinase Inhibitors” (J Med Chem, 2017).

Series [1] concerns the target T1, [Pyruvate dehydrogenase (acetyl-transferring)] kinase isozyme 2, mitochondrial (Homo sapiens, UniProt Q15119). As to the kind of experiment: Inhibition of N-terminal His6-SUMO tagged recombinant human PDK2 using [32P]-gamma-ATP assessed as decrease in incorporation of radioactivity into E1 protein incubated for 2 mins.
Series [2] deals with T1, [Pyruvate dehydrogenase (acetyl-transferring)] kinase isozyme 2, mitochondrial. As to the kind of experiment: Binding affinity to N-terminal His6-SUMO tagged recombinant human PDK2 by isothermal titration calorimetry. On the technique in general: Isothermal titration calorimetry measures the heat released or taken up as one component is titrated into another.
In series [3] the target is T2, [Pyruvate dehydrogenase (acetyl-transferring)] kinase isozyme 1, mitochondrial (Homo sapiens, UniProt Q15118). Description: Inhibition of recombinant human PDK1 in presence of E1 protein incubated for 10 mins by titration assay.
T2 sequence (Q15118 whole entry): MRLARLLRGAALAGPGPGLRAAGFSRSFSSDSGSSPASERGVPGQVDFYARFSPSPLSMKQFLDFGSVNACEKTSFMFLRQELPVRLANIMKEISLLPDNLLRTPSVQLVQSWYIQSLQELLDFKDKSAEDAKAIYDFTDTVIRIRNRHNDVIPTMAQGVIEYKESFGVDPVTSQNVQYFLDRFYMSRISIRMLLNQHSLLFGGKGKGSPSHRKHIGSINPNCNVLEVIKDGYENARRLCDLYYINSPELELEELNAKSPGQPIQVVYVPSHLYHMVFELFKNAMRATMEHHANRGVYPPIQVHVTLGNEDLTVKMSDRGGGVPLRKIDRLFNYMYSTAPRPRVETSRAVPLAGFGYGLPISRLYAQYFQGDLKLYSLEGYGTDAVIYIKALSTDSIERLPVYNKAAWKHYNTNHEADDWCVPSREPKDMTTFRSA
The target of series [4] is T3, [Pyruvate dehydrogenase (acetyl-transferring)] kinase isozyme 3, mitochondrial (Homo sapiens, UniProt Q15120). Description: Inhibition of recombinant human PDK3 in presence of E1 protein incubated for 10 mins by titration assay.
T3 sequence (Q15120 whole entry): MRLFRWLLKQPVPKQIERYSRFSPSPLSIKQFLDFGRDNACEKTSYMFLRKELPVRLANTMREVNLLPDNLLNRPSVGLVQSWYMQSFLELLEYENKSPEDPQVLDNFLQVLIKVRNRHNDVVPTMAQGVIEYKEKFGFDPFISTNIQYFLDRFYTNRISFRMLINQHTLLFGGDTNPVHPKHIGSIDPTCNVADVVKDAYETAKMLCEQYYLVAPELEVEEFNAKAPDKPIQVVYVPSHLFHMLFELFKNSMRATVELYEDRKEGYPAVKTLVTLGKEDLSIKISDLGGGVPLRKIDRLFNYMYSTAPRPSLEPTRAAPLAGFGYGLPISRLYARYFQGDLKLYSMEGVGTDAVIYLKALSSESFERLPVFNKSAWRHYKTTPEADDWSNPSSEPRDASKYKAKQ
The target of series [5] is T4, [Pyruvate dehydrogenase (acetyl-transferring)] kinase isozyme 4, mitochondrial (Homo sapiens, UniProt Q16654). Description: Inhibition of recombinant human PDK4 in presence of E1 protein incubated for 10 mins by titration assay.
T4 sequence (Q16654 whole entry): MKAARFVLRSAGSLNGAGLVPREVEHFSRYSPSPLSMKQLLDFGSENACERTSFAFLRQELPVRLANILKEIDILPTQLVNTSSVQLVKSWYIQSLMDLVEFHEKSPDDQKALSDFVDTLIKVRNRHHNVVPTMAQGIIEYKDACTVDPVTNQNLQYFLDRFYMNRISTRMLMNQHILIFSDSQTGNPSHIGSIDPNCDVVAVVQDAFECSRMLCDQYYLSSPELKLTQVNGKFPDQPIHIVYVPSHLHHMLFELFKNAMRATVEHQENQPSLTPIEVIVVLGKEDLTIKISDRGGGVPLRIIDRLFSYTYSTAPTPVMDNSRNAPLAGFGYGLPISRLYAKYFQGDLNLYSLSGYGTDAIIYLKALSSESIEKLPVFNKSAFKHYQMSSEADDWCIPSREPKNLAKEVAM
In series [6] the target is T2, [Pyruvate dehydrogenase (acetyl-transferring)] kinase isozyme 1, mitochondrial. Description: Inhibition of recombinant human PDK1 in presence of E1 protein and PDC core E2/E3BP incubated for 10 mins by titration assay.
In series [7] the target is T1, [Pyruvate dehydrogenase (acetyl-transferring)] kinase isozyme 2, mitochondrial. Description: Inhibition of N-terminal His6-SUMO tagged recombinant human PDK2 in presence of E1 protein and PDC core E2/E3BP incubated for 10 mins by titration assay.
The target in series [8] is T3, [Pyruvate dehydrogenase (acetyl-transferring)] kinase isozyme 3, mitochondrial. As to the kind of experiment: Inhibition of recombinant human PDK3 in presence of E1 protein and PDC core E2/E3BP incubated for 10 mins by titration assay.
Series [9] concerns the target T4, [Pyruvate dehydrogenase (acetyl-transferring)] kinase isozyme 4, mitochondrial. As to the kind of experiment: Inhibition of recombinant human PDK4 in presence of E1 protein and PDC core E2/E3BP incubated for 10 mins by titration assay.
Series [10] relates to Plasma. Description: Terminal half life in CD1 mouse plasma at 30 mg/kg, ip by LC-MS/MS analysis. It counts as ADME, organism-based. The following applies: in vivo.
The test system of series [11] is Plasma. Description: Cmax in CD1 mouse plasma at 30 mg/kg, ip by LC-MS/MS analysis. The conditions noted are these: in vivo. More on the design: dose 30 mg/kg, route intraperitoneal. The class given is ADME, organism-based.
Series [12] can be described thus: Tmax in CD1 mouse plasma at 30 mg/kg, ip by LC-MS/MS analysis. The class given is ADME, organism-based.
For series [13], the system named is Plasma. Description: AUClast in CD1 mouse plasma at 30 mg/kg, ip by LC-MS/MS analysis. It counts as ADME, organism-based. More on the design: dose 30 mg/kg, route intraperitoneal, time 0 - last. The following applies: in vivo.
In series [14] the test system is Plasma. Description: Apparent volume of distribution during terminal phase in CD1 mouse plasma at 30 mg/kg, ip by LC-MS/MS analysis. The class given is ADME, organism-based. The following applies: in vivo.
Series [15] in a line: Apparent clearance in CD1 mouse plasma at 30 mg/kg, ip by LC-MS/MS analysis. It counts as ADME, organism-based.
Series [16] is described as follows: Terminal half life in CD1 mouse muscle at 30 mg/kg, ip by LC-MS/MS analysis. The class given is ADME, organism-based, Muscle tissue. The conditions noted are these: read-out: beta t1/2.
The nature of series [17]: Cmax in CD1 mouse muscle at 30 mg/kg, ip by LC-MS/MS analysis. The class given is ADME, organism-based, Muscle tissue. More on the design: dose 30 mg/kg, route intraperitoneal.
A short description of series [18]: Tmax in CD1 mouse muscle at 30 mg/kg, ip by LC-MS/MS analysis. It counts as ADME, organism-based, Muscle tissue.
Series [19] can be described thus: AUClast in CD1 mouse muscle at 30 mg/kg, ip by LC-MS/MS analysis. The class given is ADME, organism-based, Muscle tissue. The following applies: in vivo.
Series [20] can be described thus: Apparent clearance in CD1 mouse muscle at 30 mg/kg, ip by LC-MS/MS analysis. The following applies: in vivo. The class given is ADME, organism-based, Muscle tissue.
Series [21] can be described thus: Apparent volume of distribution during terminal phase in CD1 mouse muscle at 30 mg/kg, ip by LC-MS/MS analysis. The class given is ADME, organism-based, Muscle tissue. The conditions noted are these: in vivo.
Series [22] relates to Liver. Description: Terminal half life in CD1 mouse liver at 30 mg/kg, ip by LC-MS/MS analysis. It counts as ADME, organism-based. The conditions noted are these: in vivo.
Series [23] has as its system Liver. Description: Cmax in CD1 mouse liver at 30 mg/kg, ip by LC-MS/MS analysis. The class given is ADME, organism-based. More on the design: dose 30 mg/kg, route intraperitoneal. The following applies: in vivo.
In series [24] the test system is Liver. Description: Tmax in CD1 mouse liver at 30 mg/kg, ip by LC-MS/MS analysis. The class given is ADME, organism-based. The following applies: in vivo.
Series [25] deals with Liver. As to the kind of experiment: AUClast in CD1 mouse liver at 30 mg/kg, ip by LC-MS/MS analysis. It counts as ADME, organism-based. The conditions noted are these: in vivo.
Series [26] deals with Liver. Description: Apparent volume of distribution during terminal phase in CD1 mouse liver at 30 mg/kg, ip by LC-MS/MS analysis. The following applies: in vivo. The class given is ADME, organism-based.
For series [27], the system named is Liver. Description: Apparent clearance in CD1 mouse liver at 30 mg/kg, ip by LC-MS/MS analysis. The class given is ADME, organism-based. The following applies: in vivo.
The next series has as its system Mus musculus. As to the kind of experiment: In vivo inhibition of PDK in DIO C57BL/6J mouse assessed as increase in PDC activity in liver at 40 to 45 mg/kg/day administered through mini osmotic pump for 2 weeks relative to control. The class given is functional.

Turning to `NC(=O)CC[C@H](N)C(=O)N1CCC(Nc2ccc3c(c2)CN(S(=O)(=O)c2ccc(O)cc2O)C3)CC1`, the IC50 in [1] is 72 nM.

`NC(=O)C[C@H](N)C(=O)N1CC[C@H](Nc2ccc3c(c2)CN(S(=O)(=O)c2ccc(O)cc2O)C3)C1`: in series [1], the IC50 stood at 156 nM.

With `O=C(O)CCCCC(=O)N1CCC(Nc2ccc3c(c2)CN(S(=O)(=O)c2ccc(O)cc2O)C3)CC1`, the IC50 in [1] worked out at 1610 nM.

As to `O=S(=O)(c1ccc(O)cc1O)N1Cc2ccc(NC3CCNCC3)cc2C1`, the IC50 in [1] amounted to 195 nM. Also, the Kd in series [2] came to 110 nM.

`O=C(O)c1ccccc1C(=O)N1CCC(Nc2ccc3c(c2)CN(S(=O)(=O)c2ccc(O)cc2O)C3)CC1`: the IC50 in [1] amounted to 565 nM.

For `NC(=O)C[C@H](N)C(=O)N1CCN(c2ccc3c(c2)CN(S(=O)(=O)c2ccc(O)cc2O)C3)CC1`, the IC50 in series [1] worked out at 767 nM.

Consider `O=C(C1C[C@@H](O)C(O)[C@H](O)C1)N1CCC(Nc2ccc3c(c2)CN(S(=O)(=O)c2ccc(O)cc2O)C3)CC1` (stereo partly specified), for which, in [1], the IC50 turned out to be 432 nM.

In the case of `O=S(=O)(c1ccc(O)cc1O)N1Cc2ccc(N3CCCCC3)cc2C1`, the IC50 in series [1] was 4370 nM.

As for `NC(=O)C[C@H](N)C(=O)NCCNc1ccc2c(c1)CN(S(=O)(=O)c1ccc(O)cc1O)C2`, the IC50 in series [1] was 357 nM.

Consider `NC(=O)C[C@H](N)C(=O)N1CCC(Nc2ccc3c(c2)CN(S(=O)(=O)c2ccc(O)cc2O)C3)CC1`, for which the IC50 came out at 58 nM in series [1]; 2540 nM in series [3]; 45800 nM in series [4]; 284 nM in series [5]; 2060 nM in series [6]; 81 nM in [7]. Further, the IC50 was 1710 nM in series [8] and 416 nM in series [9]. Besides, in series [2], the Kd was 22 nM. The entries for the “beta t1/2” value in the series with Plasma [10] and in the series on Liver [22] were 288 min and 303 min, respectively. The figures for the Cmax (with Plasma [11]; in [17]; in the series on Liver [23]) were 5443 ng/mL, 2420 ng/g and 18767 ng/g, respectively. Moreover, the Tmax in [12] is 10 min; in series [18], 10 min; with Liver [24], 30 min. The AUClast is 234088 ng·min/mL with Plasma [13], 83083 ng·min/g in [19] and 2682301 ng·min/g in the series with Liver [25]. Also, the Vz/F was 1289 mL in the series with Plasma [14], 4043 g in [21] and 116 g with Liver [26]. Also, the CL/F came to 3.11 mL/min in [15], 8.64 g/min in series [20] and 0.266 g/min in the series on Liver [27]. Moreover, in series [16], the half-life amounted to 324 min. Besides, the “fold change (FC)” value in the series with Mus musculus stood at 6.

Turning to `NC(=O)C[C@H](N)C(=O)N1CC[C@@H](Nc2ccc3c(c2)CN(S(=O)(=O)c2ccc(O)cc2O)C3)C1`, the IC50 in [1] is 221 nM.

As for `N[C@@H](CO)C(=O)N1CCC(Nc2ccc3c(c2)CN(S(=O)(=O)c2ccc(O)cc2O)C3)CC1`, in [1], the IC50 stood at 68 nM.

As to `Nc1ccc2c(c1)CN(S(=O)(=O)c1ccc(O)cc1O)C2`, the IC50 in [1] is 1180 nM.

In general, IC50 refers to the concentration that inhibits the measured activity by half. By Kd is commonly meant the constant that tells how readily two partners part at equilibrium. As a reminder, the Cmax is the peak of the concentration-time curve. Usually Tmax stands for the time at which the peak concentration occurs.
